pIC50: −log10 of the molar value.

The pIC50 is −log10 of the IC50, conventionally taken in molar units.

One assay deals with T1, HDM2 (Homo sapiens, UniProt Q00987).
T1 construct: Thioredoxin (N); made in house; host or cells: E. coli strain BL21(DE3)Rosetta
T1 sequence (Q00987 17-125): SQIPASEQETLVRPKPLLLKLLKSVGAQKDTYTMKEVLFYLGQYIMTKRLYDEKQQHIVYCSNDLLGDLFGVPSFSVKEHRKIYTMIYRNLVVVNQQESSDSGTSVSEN
Kind of assay: HDM2 FRET assay (inhibition of binding of FITC labeled p53-pocket peptide to HDM2). The note with it: FRET IC50. The method, boiled down: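 Displacement of FITC-p53 peptide (3 nM) from His-tagged HDM2 (0.5 nM) is measured by Tb-to-fluorescein FRET in PBS, 0.01% BSA, 0.01% Tween-20. IC50 values derive from 10-point curves.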
With `C[C@@H](Nc1nc(C(=O)O)nc2nc(N3C4CCCC3CC4)n(C[C@H]3CC[C@H](C)CC3)c12)C1CCC1` [Example 11.26, 8-(8-azabicyclo[3.2.1]oct-8-yl)-6-{[(1R)-1-cyclobutylethyl]amino}-7-[(trans-4-methylcyclohexyl)methyl]-7H-purine-2-carboxylic acid], the pIC50 was 8.45.

The same assay, now with this note: Table 11; read-out: FRET IC50.
In the case of `C[C@@H](Nc1nc(C(=O)O)nc2nc(N3CCCC4CCCCC43)n(C[C@H]3CC[C@H](C)CC3)c12)C1CCC1` (stereo partly drawn) [Example 11.23, 6-{[(1R)-1-cyclobutylethyl]amino}-7-[(trans-4-methylcyclohexyl)methyl]-8-(octahydroquinolin-1(2H)-yl)-7H-purine-2-carboxylic acid], the negative logarithm of the IC50 (pIC50) was 8.51.
The same measure, in the same setting: with `C[C@@H](Nc1nc(C(=O)O)nc2nc(N3CCCC3c3cccc(F)c3)n(C[C@H]3CC[C@H](C)CC3)c12)C1CCC1` (stereo partly drawn) [Example 11.28, 6-{[(1R)-1-cyclobutylethyl]amino}-8-[2-(3-fluorophenyl)pyrrolidin-1-yl]-7-[(trans-4-methylcyclohexyl)methyl]-7H-purine-2-carboxylic acid] the figure was 8.82; with `CC1CCCCN1c1nc2nc(C(=O)O)nc(N[C@H](C)C3CCC3)c2n1C[C@H]1CC[C@H](C)CC1` (stereo partly drawn) [Example 11.29, 6-{[(1R)-1-cyclobutylethyl]amino}-7-[(trans-4-methylcyclohexyl)methyl]-8-(2-methylpiperidin-1-yl)-7H-purine-2-carboxylic acid], 8.65.
On the same count and under the same terms, next, `CC(C)CN(C)c1nc2nc(C(=O)O)nc(N[C@H](C)C3CCC3)c2n1C[C@H]1CC[C@H](C)CC1` [Example 11.30, 6-{[(1R)-1-cyclobutylethyl]amino}-7-[(trans-4-methylcyclohexyl)methyl]-8-[methyl(2-methylpropyl)amino] -7H-purine-2-carboxylic acid]: 8.78; `COc1cccc(C2CCCCN2c2nc3nc(C(=O)O)nc(N[C@H](C)C4CCC4)c3n2C[C@H]2CC[C@H](C)CC2)c1` (stereo partly drawn) [Example 11.31, 6-{[(1R)-1-cyclobutylethyl]amino}-8-[2-(3-methoxyphenyl)piperidin-1-yl]-7-[(trans-4-methylcyclohexyl)methyl]-7H-purine-2-carboxylic acid]: 8.65; `CCOCC1CCCN1c1nc2nc(-c3noc(=O)[nH]3)nc(N[C@H](C)C3CCC3)c2n1C[C@H]1CC[C@H](C)CC1` (stereo partly drawn) [Example 11.32, 3-(6-{[(1R)-1-cyclobutylethyl]amino}-8-[2-(ethoxymethyl)pyrrolidin-1-yl]-7-[(trans-4-methylcyclohexyl)methyl]-7H-purin-2-yl)-1,2,4-oxadiazol-5(2H)-one]: 8.10.
On the same count and under the same terms, with `CCC1CCCN1c1nc2nc(-c3noc(=O)[nH]3)nc(N[C@H](C)C3CCC3)c2n1C[C@H]1CC[C@H](C)CC1` (stereo partly drawn) [Example 11.33, 3-(6-{[(1R)-1-cyclobutylethyl]amino}-8-(2-ethylpyrrolidin-1-yl)-7-[(trans-4-methylcyclohexyl)methyl]-7H-purin-2-yl)-1,2,4-oxadiazol-5(2H)-one] the figure was 8.27.
Regarding `CC1CCCN1c1nc2nc(-c3noc(=O)[nH]3)nc(N[C@H](C)C3CCC3)c2n1C[C@H]1CC[C@H](C)CC1` (stereo partly drawn) [Example 11.34, 3-[6-{[(1R)-1-cyclobutylethyl]amino}-7-[(trans-4-methylcyclohexyl)methyl]-8-(2-methylpyrrolidin-1-yl)-7H-purin-2-yl]-1,2,4-oxadiazol-5(2H)-one], the pIC50 is 7.60.
Same read-out and setting: next, `CCCC1CCCN1c1nc2nc(-c3noc(=O)[nH]3)nc(N[C@H](C)C3CCC3)c2n1C[C@H]1CC[C@H](C)CC1` (stereo partly drawn) [Example 11.35, 3-[6-{[(1R)-1-cyclobutylethyl]amino}-7-[(trans-4-methylcyclohexyl)methyl]-8-(2-propylpyrrolidin-1-yl)-7H-purin-2-yl]-1,2,4-oxadiazol-5(2H)-one]: 8.36; `C[C@@H](Nc1nc(-c2noc(=O)[nH]2)nc2nc(N3CCCC3C(C)(C)C)n(C[C@H]3CC[C@H](C)CC3)c12)C1CCC1` (stereo partly drawn) [Example 11.36, 3-{8-(2-tert-butylpyrrolidin-1-yl)-6-{[(1R)-1-cyclobutylethyl]amino}-7-[(trans-4-methylcyclohexyl)methyl]-7H-purin-2-yl}-1,2,4-oxadiazol-5(2H)-one]: 8.41; `C[C@@H](Nc1nc(-c2noc(=O)[nH]2)nc2nc(N3CCCC3CC(C)(C)C)n(C[C@H]3CC[C@H](C)CC3)c12)C1CCC1` (stereo partly drawn) [Example 11.37, 3-(6-{[(1R)-1-cyclobutylethyl]amino}-8-[2-(2,2-dimethylpropyl)pyrrolidin-1-yl]-7-[(trans-4-methylcyclohexyl)methyl]-7H-purin-2-yl)-1,2,4-oxadiazol-5(2H)-one]: 8.16.
Same read-out and setting: next, `C[C@@H](Nc1nc(-c2noc(=O)[nH]2)nc2nc(N3CCCC3C3CCC3)n(C[C@H]3CC[C@H](C)CC3)c12)C1CCC1` (stereo partly drawn) [Example 11.38, 3-(6-{[(1R)-1-cyclobutylethyl]amino}-8-(2-cyclobutylpyrrolidin-1-yl)-7-[(trans-4-methylcyclohexyl)methyl]-7H-purin-2-yl)-1,2,4-oxadiazol-5(2H)-one]: 8.31; `COCC1CCCCN1c1nc2nc(-c3noc(=O)[nH]3)nc(N[C@H](C)C3CCC3)c2n1C[C@H]1CC[C@H](C)CC1` (stereo partly drawn) [Example 11.39, 3-(6-{[(1R)-1-cyclobutylethyl]amino}-8-[2-(methoxymethyl)piperidin-1-yl]-7-[(trans-4-methylcyclohexyl)methyl]-7H-purin-2-yl)-1,2,4-oxadiazol-5(2H)-one]: 8.01.
The same measure, in the same setting: next, `C[C@@H](Nc1nc(-c2noc(=O)[nH]2)nc2nc(N3CCCCC3CF)n(C[C@H]3CC[C@H](C)CC3)c12)C1CCC1` (stereo partly drawn) [Example 11.40, 3-(6-{[(1R)-1-cyclobutylethyl]amino}-8-[2-(fluoromethyl)piperidin-1-yl]-7-[(trans-4-methylcyclohexyl)methyl]-7H-purin-2-yl)-1,2,4-oxadiazol-5(2H)-one]: 8.07; `CC(C)CC1COCCN1c1nc2nc(-c3noc(=O)[nH]3)nc(N[C@H](C)C3CCC3)c2n1C[C@H]1CC[C@H](C)CC1` (stereo partly drawn) [Example 11.41, 3-(6-{[(1R)-1-cyclobutylethyl]amino}-7-[(trans-4-methylcyclohexyl)methyl]-8-[3-(2-methylpropyl)morpholin-4-yl]-7H-purin-2-yl)-1,2,4-oxadiazol-5(2H)-one]: 7.83.
As to `C[C@@H](Nc1nc(-c2noc(=O)[nH]2)nc2nc(N(C)CC3CC3)n(C[C@H]3CC[C@H](C)CC3)c12)C1CCC1` [Example 11.42, 3-(6-{[(1R)-1-cyclobutylethyl]amino}-8-[(cyclopropylmethyl) (methyl)amino]-7-[(trans-4-methylcyclohexyl)methyl]-7H-purin-2-yl)-1,2,4-oxadiazol-5(2H)-one], the pIC50 was 8.27.
The same measure, in the same setting: next, `C[C@@H](Nc1nc(-c2noc(=O)[nH]2)nc2nc(N(C)CC(C)(C)C)n(C[C@H]3CC[C@H](C)CC3)c12)C1CCC1` [Example 11.43, 3-(6-{[(1R)-1-cyclobutylethyl]amino}-8-[(2,2-dimethylpropyl)(methyl)amino]-7-[(trans-4-methylcyclohexyl)methyl]-7H-purin-2-yl)-1,2,4-oxadiazol-5(2H)-one]: 7.71; `CCCN(C)c1nc2nc(-c3noc(=O)[nH]3)nc(N[C@H](C)C3CCC3)c2n1C[C@H]1CC[C@H](C)CC1` [Example 11.44, 3-(6-{[(1R)-1-cyclobutylethyl]amino}-7-[(trans-4-methylcyclohexyl)methyl]-8-[methyl(propyl)amino]-7H-purin-2-yl)-1,2,4-oxadiazol-5(2H)-one]: 8.00.
Same read-out and setting: next, `C[C@@H](Nc1nc(-c2noc(=O)[nH]2)nc2nc(N3CCCCC3Cc3ccccc3)n(C[C@H]3CC[C@H](C)CC3)c12)C1CCC1` (stereo partly drawn) [Example 11.45, 3-{8-(2-benzylpiperidin-1-yl)-6-{[(1R)-1-cyclobutylethyl]amino}-7-[(trans-4-methylcyclohexyl)methyl]-7H-purin-2-yl}-1,2,4-oxadiazol-5(2H)-one]: 7.09; `CC(C)C1CCCN1c1nc2nc(-c3noc(=O)[nH]3)nc(N[C@H](C)C3CCC3)c2n1C[C@H]1CC[C@H](C)CC1` (stereo partly drawn) [Example 11.46, 3-(6-{[(1R)-1-cyclobutylethyl]amino}-7-[(trans-4-methylcyclohexyl)methyl]-8-[2-(1-methylethyl)pyrrolidin-1-yl]-7H-purin-2-yl)-1,2,4-oxadiazol-5(2H)-one]: 8.35.
Still for that read-out and setting: next, `CC1CCCCN1c1nc2nc(-c3noc(=O)[nH]3)nc(N[C@H](C)C3CCC3)c2n1C[C@H]1CC[C@H](C)CC1` (stereo partly drawn) [Example 11.47, 3-[6-{[(1R)-1-cyclobutylethyl]amino}-7-[(trans-4-methylcyclohexyl)methyl]-8-(2-methylpiperidin-1-yl)-7H-purin-2-yl]-1,2,4-oxadiazol-5(4H)-one]: 8.14; `CC(C)CN(C)c1nc2nc(-c3noc(=O)[nH]3)nc(N[C@H](C)C3CCC3)c2n1C[C@H]1CC[C@H](C)CC1` [Example 11.48, 3-(6-{[(1R)-1-cyclobutylethyl]amino}-7-[(trans-4-methylcyclohexyl)methyl]-8-[methyl(2-methylpropyl)amino] -7H-purin-2-yl)-1,2,4-oxadiazol-5(4H)-one]: 8.17; `C[C@@H](Nc1nc(C(=O)O)nc2nc(N3CCOC[C@H]3c3ccccc3)n(C[C@H]3CC[C@H](C)CC3)c12)C(F)(F)F` [Example 11.51, 7-[(trans-4-methylcyclohexyl)methyl]-8-[(3R)-3-phenylmorpholin-4-yl]-6-{[(1R)-2,2,2-trifluoro-1-methylethyl]amino}-7H-purine-2-carboxylic acid]: 8.65.
On to `CCC1CCCCN1c1nc2nc(C(=O)O)nc(N[C@H](C)C3CCC3)c2n1C[C@H]1CC[C@H](C)CC1` (stereo partly drawn) [Example 11.52, 6-{[(1R)-1-cyclobutylethyl]amino}-8-(2-ethylpiperidin-1-yl)-7-[(trans-4-methylcyclohexyl)methyl]-7H-purine-2-carboxylic acid], for which the pIC50 is 8.47.

(Values after patent publication EP2951180B1, “2,6,7,8 SUBSTITUTED PURINES AS HDM2 INHIBITORS” (Merck Sharp & Dohme Corp., priority 2013, dated 2014).)
